Data published in patent US20200245620A1 (priority 2018, published 2020).
≈ marks a conversion by molar mass, not a printed value.

Test system: Fusarium graminearum
Test: microbe, parasite or virus in culture
Type: cell-based
Details: for EC50: Fusarium graminearum

SMILES | EC50 (F.g carbendazim-resistant strains) [µg/mL] | EC50 (F.g phenamacril-resistant strains) [µg/mL] | inhibitory activity on the growth in vitro (sensitive and fungicide-resistant strains, alone or mixed with ipconazole)
CC(C)C1CCC(Cc2ccc(Cl)cc2)C1(O)Cn1cncn1 (stereo not drawn) [Ipconazole] | 0.946 (≈ 2.83 µM) | 0.101 (≈ 0.303 µM) | –
OCC1=C[C@H](N[C@H]2C[C@H](CO)[C@@H](O[C@@H]3O[C@H](CO)[C@@H](O)[C@H](O)[C@H]3O)[C@H](O)[C@H]2O)[C@H](O)[C@@H](O)[C@@H]1O [Jinggangmycin] | – | – | almost does not have inhibitory activity
